Consider 16 compounds from patent publication US20250353864A1, “INDAZOLE CONTAINING MACROCYCLES AND THEIR USE” (BLOSSOMHILL THERAPEUTICS, INC., priority 2022, published 2025).

SMILES strings stand for the structures.

Common to all, as to format: biochemical
Assay [1] addresses EGFR L858R/T790M/C797S mutant (Homo sapiens (Human), UniProt P00533, C797S/L858R/T790M). The assay can be described thus: HotSpot radiometric kinase assay, EGFR L858R/T790M/C797S mutant. As to conditions: 10 μM ATP. How it is done: (§1) Biochemical Assays for Inhibition of Wild-Type and Mutant EGFRs
(§2) Briefly, specific kinase/substrate pairs along with required cofactors were prepared in reaction buffer; 20 mM Hepes pH 7.5, 10 mM […], 1 mM EGTA, 0.02% Brij35, 0.02 mg/ml BSA, 0.1 mM Na3VO4, 2 mM DTT, 1% DMSO. Compounds were delivered into the reaction, followed […] later by addition of a mixture of ATP (Sigma, St. Louis MO) and ^33P ATP (Perkin Elmer, Waltham MA) to a final concentration of 10 μM. Reactions were carried out at room temperature for 120 min, followed by spotting of the reactions onto P81 ion exchange filter paper (Whatman Inc., Piscataway, NJ). Unbound phosphate was removed by extensive washing of filters in 0.75% phosphoric acid. […] IC50 values and curve fits were obtained using Prism (GraphPad Software).

Another assay concerns the target EGFR L858R/T790M mutant (Homo sapiens (Human), UniProt P00533, L858R/T790M). Description: HotSpot radiometric kinase assay, EGFR L858R/T790M mutant. As to conditions: 10 μM ATP. How it is done:
as §1, §2

Another assay has as its target EGFR (D770_N771insNPG) (Homo sapiens (Human), UniProt P00533, INS770NPG). Description: HotSpot radiometric kinase assay, EGFR (D770_N771insNPG). The conditions noted are these: 10 μM ATP, read-out: EGFR (Δ770_N771insNPG) IC50. As to the method: as §1, §2
For assay [2], the target named is EGFR Δ746-750/C797S mutant (Homo sapiens (Human), UniProt P00533, C797S/DEL746-750). The assay can be described thus: HotSpot radiometric kinase assay, EGFR Δ746-750/C797S mutant. As to conditions: 10 μM ATP. How it is done:
as §1, §2

In another assay the target is EGFR L858R mutant (Homo sapiens (Human), UniProt P00533, L858R). Description: HotSpot radiometric kinase assay, EGFR L858R mutant. As to conditions: 10 μM ATP. As to the method:
as §1, §2

The target in a further assay is EGFR WT (Homo sapiens (Human), UniProt P00533). The assay can be described thus: HotSpot radiometric kinase assay (Reaction Biology), EGFR WT. As to conditions: 10 μM ATP. How it is done: as §1, §2
Chain of EGFR WT (P00533 25-1210): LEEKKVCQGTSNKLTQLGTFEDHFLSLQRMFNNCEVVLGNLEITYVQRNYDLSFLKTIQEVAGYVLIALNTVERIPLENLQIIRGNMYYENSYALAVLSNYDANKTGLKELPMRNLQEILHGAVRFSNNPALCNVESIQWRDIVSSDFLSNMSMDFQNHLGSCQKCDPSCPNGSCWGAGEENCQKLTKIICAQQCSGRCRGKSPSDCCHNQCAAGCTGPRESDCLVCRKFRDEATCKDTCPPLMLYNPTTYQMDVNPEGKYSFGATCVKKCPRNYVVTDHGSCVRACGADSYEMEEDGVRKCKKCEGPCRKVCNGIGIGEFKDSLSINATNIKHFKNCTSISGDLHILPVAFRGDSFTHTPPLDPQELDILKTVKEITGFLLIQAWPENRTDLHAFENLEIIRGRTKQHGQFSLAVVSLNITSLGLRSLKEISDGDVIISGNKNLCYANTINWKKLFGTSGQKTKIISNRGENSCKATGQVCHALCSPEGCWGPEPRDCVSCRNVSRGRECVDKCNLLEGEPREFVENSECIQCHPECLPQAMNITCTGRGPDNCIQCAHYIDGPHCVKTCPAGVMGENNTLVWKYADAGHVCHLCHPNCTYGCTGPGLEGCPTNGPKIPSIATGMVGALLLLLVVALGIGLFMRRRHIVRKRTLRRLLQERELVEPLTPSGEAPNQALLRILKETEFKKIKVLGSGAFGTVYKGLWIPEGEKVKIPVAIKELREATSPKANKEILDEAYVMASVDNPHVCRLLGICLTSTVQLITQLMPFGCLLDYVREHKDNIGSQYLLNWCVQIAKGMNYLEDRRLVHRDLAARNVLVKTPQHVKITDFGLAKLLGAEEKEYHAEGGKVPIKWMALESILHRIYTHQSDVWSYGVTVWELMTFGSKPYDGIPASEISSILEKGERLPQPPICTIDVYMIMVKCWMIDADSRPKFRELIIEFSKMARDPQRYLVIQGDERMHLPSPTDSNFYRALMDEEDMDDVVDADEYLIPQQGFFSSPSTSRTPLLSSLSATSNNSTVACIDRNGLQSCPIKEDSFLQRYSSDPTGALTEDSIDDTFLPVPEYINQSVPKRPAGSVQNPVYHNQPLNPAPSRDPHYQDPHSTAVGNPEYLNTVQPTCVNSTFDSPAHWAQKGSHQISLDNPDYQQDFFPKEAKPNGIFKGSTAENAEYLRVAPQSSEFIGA
In another assay the target is EGFR Δ746-750 mutant (Homo sapiens (Human), UniProt P00533, DEL746-750). Description: HotSpot radiometric kinase assay, EGFR Δ746-750 mutant. The conditions noted are these: 10 μM ATP. As to the method:
as §1, §2

Chain of EGFR L858R mutant (P00533 25-1210 L858R): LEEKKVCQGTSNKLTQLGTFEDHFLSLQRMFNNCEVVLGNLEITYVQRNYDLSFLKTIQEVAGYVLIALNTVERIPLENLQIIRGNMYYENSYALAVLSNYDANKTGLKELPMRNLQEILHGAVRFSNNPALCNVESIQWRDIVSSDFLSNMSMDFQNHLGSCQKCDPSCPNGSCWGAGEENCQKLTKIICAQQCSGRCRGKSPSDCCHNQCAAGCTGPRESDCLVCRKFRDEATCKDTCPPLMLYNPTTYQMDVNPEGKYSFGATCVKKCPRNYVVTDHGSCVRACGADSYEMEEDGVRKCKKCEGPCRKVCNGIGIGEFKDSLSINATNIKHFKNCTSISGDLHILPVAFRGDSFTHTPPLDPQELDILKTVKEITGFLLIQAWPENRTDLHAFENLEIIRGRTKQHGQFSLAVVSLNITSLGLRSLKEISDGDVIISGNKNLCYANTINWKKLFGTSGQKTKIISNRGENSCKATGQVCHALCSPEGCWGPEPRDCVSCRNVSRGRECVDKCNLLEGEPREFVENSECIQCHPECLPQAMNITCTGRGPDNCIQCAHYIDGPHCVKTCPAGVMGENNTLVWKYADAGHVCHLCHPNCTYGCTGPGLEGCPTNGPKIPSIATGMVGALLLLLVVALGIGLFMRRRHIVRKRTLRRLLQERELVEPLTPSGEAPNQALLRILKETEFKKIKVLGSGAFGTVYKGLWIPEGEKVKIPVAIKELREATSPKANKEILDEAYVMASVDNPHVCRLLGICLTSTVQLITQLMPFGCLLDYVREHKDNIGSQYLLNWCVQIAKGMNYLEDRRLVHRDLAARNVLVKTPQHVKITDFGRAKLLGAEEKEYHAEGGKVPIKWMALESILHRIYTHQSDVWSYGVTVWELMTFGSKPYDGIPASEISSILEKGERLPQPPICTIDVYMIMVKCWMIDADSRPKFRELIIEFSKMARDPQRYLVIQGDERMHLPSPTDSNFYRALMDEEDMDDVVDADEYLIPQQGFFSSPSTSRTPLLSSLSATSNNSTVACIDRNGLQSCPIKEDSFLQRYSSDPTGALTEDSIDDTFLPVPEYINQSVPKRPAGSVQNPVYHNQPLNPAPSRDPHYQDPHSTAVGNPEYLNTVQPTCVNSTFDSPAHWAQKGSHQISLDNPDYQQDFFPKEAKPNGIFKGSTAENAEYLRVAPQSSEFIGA
Chain of EGFR Δ746-750/C797S mutant (P00533 other isoform, or with tags, fused parts or gaps C797S/del 1-668/del 746-750 limits assumed): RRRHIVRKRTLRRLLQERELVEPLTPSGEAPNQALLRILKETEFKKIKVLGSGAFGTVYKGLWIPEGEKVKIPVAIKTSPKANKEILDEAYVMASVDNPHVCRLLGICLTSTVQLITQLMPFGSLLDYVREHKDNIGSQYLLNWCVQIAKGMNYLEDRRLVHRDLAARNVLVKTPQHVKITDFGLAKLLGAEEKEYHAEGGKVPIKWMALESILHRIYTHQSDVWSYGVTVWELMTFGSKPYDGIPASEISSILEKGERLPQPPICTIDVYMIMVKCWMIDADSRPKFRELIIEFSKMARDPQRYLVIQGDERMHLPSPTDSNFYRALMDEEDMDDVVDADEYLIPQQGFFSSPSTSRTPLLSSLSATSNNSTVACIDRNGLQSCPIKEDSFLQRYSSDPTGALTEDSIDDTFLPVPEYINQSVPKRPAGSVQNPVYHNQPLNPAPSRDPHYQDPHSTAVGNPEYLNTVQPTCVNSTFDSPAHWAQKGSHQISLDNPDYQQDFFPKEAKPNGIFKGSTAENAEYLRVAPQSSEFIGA
Chain of EGFR (D770_N771insNPG) (P00533 other isoform, or with tags, fused parts or gaps del 1-668/ins NPG behind 770 limits assumed): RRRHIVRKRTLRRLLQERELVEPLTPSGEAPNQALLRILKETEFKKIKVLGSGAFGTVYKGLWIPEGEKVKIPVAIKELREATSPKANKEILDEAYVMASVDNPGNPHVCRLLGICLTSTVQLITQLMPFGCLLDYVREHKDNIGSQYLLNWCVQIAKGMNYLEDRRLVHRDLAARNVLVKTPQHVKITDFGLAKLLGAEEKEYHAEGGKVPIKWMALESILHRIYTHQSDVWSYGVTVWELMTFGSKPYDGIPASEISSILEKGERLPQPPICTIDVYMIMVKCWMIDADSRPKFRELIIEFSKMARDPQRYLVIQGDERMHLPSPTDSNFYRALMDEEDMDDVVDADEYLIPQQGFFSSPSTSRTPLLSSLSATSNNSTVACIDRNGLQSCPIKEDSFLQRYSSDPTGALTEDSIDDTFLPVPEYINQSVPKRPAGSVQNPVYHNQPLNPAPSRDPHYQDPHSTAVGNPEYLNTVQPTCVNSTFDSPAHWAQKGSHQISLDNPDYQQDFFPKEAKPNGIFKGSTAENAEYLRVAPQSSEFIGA
Chain of EGFR L858R/T790M mutant (P00533 25-1210 T790M/L858R): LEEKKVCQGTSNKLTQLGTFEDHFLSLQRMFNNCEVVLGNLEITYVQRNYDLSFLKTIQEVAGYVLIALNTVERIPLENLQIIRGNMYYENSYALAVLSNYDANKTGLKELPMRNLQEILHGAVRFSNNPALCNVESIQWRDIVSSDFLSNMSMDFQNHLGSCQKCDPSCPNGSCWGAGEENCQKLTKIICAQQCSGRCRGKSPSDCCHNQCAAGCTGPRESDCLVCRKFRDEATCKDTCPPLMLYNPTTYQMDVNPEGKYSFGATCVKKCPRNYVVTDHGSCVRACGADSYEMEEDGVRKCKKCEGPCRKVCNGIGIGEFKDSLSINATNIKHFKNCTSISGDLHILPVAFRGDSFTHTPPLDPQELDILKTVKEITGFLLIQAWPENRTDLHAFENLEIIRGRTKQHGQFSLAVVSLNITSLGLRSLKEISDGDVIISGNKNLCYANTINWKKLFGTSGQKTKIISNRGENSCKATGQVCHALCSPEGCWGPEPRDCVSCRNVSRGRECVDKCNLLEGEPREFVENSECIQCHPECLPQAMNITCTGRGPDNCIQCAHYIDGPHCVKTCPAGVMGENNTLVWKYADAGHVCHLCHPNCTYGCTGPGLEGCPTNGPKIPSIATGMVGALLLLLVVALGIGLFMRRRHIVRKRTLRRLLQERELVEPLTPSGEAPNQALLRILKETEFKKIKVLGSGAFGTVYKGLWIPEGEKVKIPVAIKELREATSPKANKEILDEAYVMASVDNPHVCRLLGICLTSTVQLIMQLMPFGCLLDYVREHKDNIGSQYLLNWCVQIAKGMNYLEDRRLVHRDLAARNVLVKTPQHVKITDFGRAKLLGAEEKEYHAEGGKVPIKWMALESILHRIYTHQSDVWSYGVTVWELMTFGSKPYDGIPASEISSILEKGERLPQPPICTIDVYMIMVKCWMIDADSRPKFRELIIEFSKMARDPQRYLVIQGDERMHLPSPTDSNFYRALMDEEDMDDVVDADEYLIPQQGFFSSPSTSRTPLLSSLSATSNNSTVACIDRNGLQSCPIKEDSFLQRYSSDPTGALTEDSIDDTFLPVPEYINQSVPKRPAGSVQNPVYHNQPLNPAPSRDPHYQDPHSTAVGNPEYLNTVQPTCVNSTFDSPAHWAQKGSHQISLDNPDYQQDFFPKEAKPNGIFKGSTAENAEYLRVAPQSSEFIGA

Regarding `CCOc1nn(CCO)c2c1/C=C/c1n[nH]c3ccc(cc13)-c1cnn(C)c1O[C@@H]1CN(C)C[C@H]1N(C)C2` (single isomer, unassigned) [Ex. 271], the IC50 (commonly the midpoint of a concentration-inhibition curve) is 31.6 nM in assay [1]; 56.7 nM against EGFR L858R/T790M mutant; more than 1000 nM on EGFR (D770_N771insNPG); 422 nM in assay [2]; 1580 nM against EGFR L858R mutant; more than 1000 nM on EGFR WT. Further, 472 nM corresponded to half-maximal inhibition against EGFR Δ746-750 mutant (IC50).
`Cc1nn([C@H]2COC[C@@H]2O)c2c1/C=C/c1n[nH]c3ccc(cc13)-c1cnn(C)c1OCCCO2` (single isomer, unassigned) [Example 76]: the IC50 in assay [1] stood at 63.4 nM; on EGFR L858R/T790M mutant, 42.9 nM; on EGFR (D770_N771insNPG), 233 nM; in assay [2] it was 90.8 nM; on EGFR L858R mutant it was 156 nM; at EGFR WT it was 538 nM. Inhibition against EGFR Δ746-750 mutant was half-maximal at 147 nM (IC50).
For `Cc1nn([C@@H]2COC[C@H]2O)c2c1/C=C/c1n[nH]c3ccc(cc13)-c1cnn(C)c1OCCCO2` (single isomer, unassigned) [Example 77], the IC50 was 453 nM in assay [1]; 427 nM against EGFR L858R/T790M mutant; 1880 nM at EGFR (D770_N771insNPG); 803 nM in assay [2]; 2080 nM on EGFR L858R mutant; more than 1000 nM against EGFR WT. It took 749 nM to reach half-maximal inhibition against EGFR Δ746-750 mutant (IC50).
In the case of `Cc1nn(C)c2c1/C=C/c1n[nH]c3ccc(cc13)-c1cnn(C)c1CN(C)C[C@@H](C)O2` (single isomer, unassigned) [Example 96], the IC50 in assay [1] is 9.45 nM; against EGFR L858R/T790M mutant, 5.29 nM; at EGFR (D770_N771insNPG) it was 196 nM; in assay [2], 94.1 nM; against EGFR L858R mutant it was 74.9 nM; on EGFR WT it was 242 nM. Moreover, the IC50 on EGFR Δ746-750 mutant turned out to be 285 nM.
As for `CN1CCN(c2ccc3c(c2)OC2CCN(CCOc4c(cnn4C)-c4ccc5[nH]nc(c5c4)/C=C/3)C2=O)CC1` (stereo in doubt) [Example 131], the half-maximal inhibitory concentration (IC50) in assay [1] was determined as 1.9 nM; at EGFR L858R/T790M mutant it was 0.57 nM; at EGFR (D770_N771insNPG), 6.79 nM; in assay [2] it was 4.09 nM; against EGFR L858R mutant, 4.02 nM; on EGFR WT, 17.7 nM. At EGFR Δ746-750 mutant, this compound came in with an IC50 of 1.65 nM.
Turning to `Cn1ncc2c1COCCOc1ccccc1/C=C/c1n[nH]c3ccc-2cc13` [Ex. 1, (11E)-1-methyl-1,18,19,21-tetrahydro-8H-10,7,4-(ethan[1]yl[1,2]diylidene)pyrazolo[3,4-f][1,4,12,13]benzodioxadiazacyclooctadecine], the half-inhibitory concentration (IC50) in assay [1] was 259 nM; against EGFR L858R/T790M mutant, 251 nM; on EGFR (D770_N771insNPG), more than 1000 nM; in assay [2], 177 nM; on EGFR L858R mutant, 848 nM; against EGFR WT, more than 1000 nM. At EGFR Δ746-750 mutant, this compound gave a 50% inhibitory concentration (IC50) of 68.4 nM.
With `COCc1nn(C)c2c1/C=C/c1n[nH]c3ccc(cc13)-c1cnn(C)c1OCCCO2` [Ex. 11, (17E)-16-(methoxymethyl)-8,14-dimethyl-2,11,12,14-tetrahydro-8H,10H-3,5-etheno[1,5]dioxacyclopentadecino[10,11-c:15,14-c′:6,7-c″]tripyrazole], the half-inhibitory concentration (IC50) is 218 nM in assay [1]; 153 nM at EGFR L858R/T790M mutant; more than 1000 nM at EGFR (D770_N771insNPG); 798 nM in assay [2]; 1580 nM on EGFR L858R mutant; more than 1000 nM on EGFR WT. This compound yielded an IC50 at EGFR Δ746-750 mutant of 850 nM.
On to `CCc1nn(CCO)c2c1/C=C/c1n[nH]c3ccc(cc13)-c1cnn(C)c1OCCCO2` [Ex. 23, 2-[(17E)-16-ethyl-8-methyl-2,8,11,12-tetrahydro-10H,14H-3,5-etheno[1,5]dioxacyclopentadecino[10,11-c:15,14-c′:6,7-c″]tripyrazol-14-yl]ethan-1-ol], for which the IC50 was determined as 22.5 nM in assay [1]; 13.1 nM on EGFR L858R/T790M mutant; 362 nM on EGFR (D770_N771insNPG); 44.5 nM in assay [2]; 96.6 nM against EGFR L858R mutant; 290 nM against EGFR WT. Besides, inhibition against EGFR Δ746-750 mutant was half-maximal at 29.3 nM (IC50).
On to `C[C@H]1CN(C)Cc2c(c(CN(C)C)nn2CCO)/C=C/c2n[nH]c3ccc(cc23)-c2cnn(C)c2O1` [Ex. 266, 2-{(10S,17E)-16-[(dimethylamino)methyl]-8,10,12-trimethyl-2,8,10,11,12,13-hexahydro-14H-3,5-ethenotripyrazolo[3,4-f:3′,4′-j:4″,3″-n][1,4]oxazacyclopentadecin-14-yl}ethan-1-ol], for which the IC50 in assay [1] was 60.4 nM; against EGFR L858R/T790M mutant it was 282 nM; on EGFR (D770_N771insNPG), more than 1000 nM; in assay [2] it was 577 nM; at EGFR L858R mutant, more than 1000 nM; against EGFR WT it was more than 1000 nM. In addition, half-maximal inhibition against EGFR Δ746-750 mutant (IC50) was put at 971 nM.
Regarding `CCOc1ccc2c(n1)/C=C/c1n[nH]c3ccc(cc13)-c1cnn(C)c1O[C@@H](C)CN(C)C2` [Ex. 267, (10S,18E)-16-ethoxy-8,10,12-trimethyl-2,8,10,11,12,13-hexahydro-3,5-ethenodipyrazolo[3,4-j:4′,3′-n]pyrido[3,2-f][1,4]oxazacyclopentadecine], the half-maximal inhibitory concentration (IC50) was 5.42 nM in assay [1]; 8.31 nM at EGFR L858R/T790M mutant; 1230 nM at EGFR (D770_N771insNPG); 107 nM in assay [2]; 241 nM on EGFR L858R mutant; 769 nM against EGFR WT. Moreover, at EGFR Δ746-750 mutant, half-maximal inhibition (IC50) was put at 117 nM.
On to `Cc1c2c(nn1CCO)CNC[C@H](C)Oc1c(cnn1C)-c1ccc3[nH]nc(c3c1)/C=C/2` [Example 49, 2-[(10S,17E)-8,10,16-trimethyl-2,8,10,11,12,13-hexahydro-15H-3,5-ethenotripyrazolo[3,4-f:3′,4′-j:4″,3″- n][1,4]oxazacyclopentadecin-15-yl]ethan-1-ol], for which the IC50 was 84.4 nM in assay [1]; 126 nM against EGFR L858R/T790M mutant; more than 1000 nM on EGFR (D770_N771insNPG); 1040 nM in assay [2]; 862 nM against EGFR L858R mutant; more than 1000 nM against EGFR WT. The 50% inhibitory concentration (IC50) against EGFR Δ746-750 mutant amounted to 617 nM.
Consider `Cc1nn(CCO)c2c1/C=C/c1n[nH]c3ccc(cc13)-c1cnn(C)c1CN(C)CCO2` [Example 56, 2-[(17E)-8,10,16-trimethyl-2,8,9,10,11,12-hexahydro-14H-3,5-ethenotripyrazolo[3,4-f:4′,3′-j:4″,3″- n][1,4]oxazacyclopentadecin-14-yl]ethan-1-ol], for which the IC50 stood at 1.12 nM in assay [1]; 1.22 nM against EGFR L858R/T790M mutant; 50 nM at EGFR (D770_N771insNPG); 8.48 nM in assay [2]; 22.2 nM against EGFR L858R mutant; 42.7 nM against EGFR WT. At EGFR Δ746-750 mutant, this compound registered a 50% inhibitory concentration (IC50) of 15 nM.
For the compound `Cc1c2c(nn1CCO)CN(C)C[C@H](C)Oc1c(cnn1C)-c1ccc3[nH]nc(c3c1)/C=C/2` [Example 60, 2-[(10S,17E)-8,10,12,16-tetramethyl-2,8,10,11,12,13-hexahydro-15H-3,5-ethenotripyrazolo[3,4-f:3′,4′-j:4″,3″- n][1,4]oxazacyclopentadecin-15-yl]ethan-1-ol], the IC50 in assay [1] turned out to be 3.27 nM; at EGFR L858R/T790M mutant, 6.86 nM; on EGFR (D770_N771insNPG), 678 nM; in assay [2], 89.4 nM; against EGFR L858R mutant it was 101 nM; at EGFR WT, 581 nM. The compound further returned a concentration for half-maximal inhibition (IC50) against EGFR Δ746-750 mutant of 89.7 nM.
For `Cc1nn(C)c2c1/C=C/c1n[nH]c3ccc(cc13)-c1cnn(C)c1OCCN(C)C(=O)CO2` [Example 63, (19E)-8,12,16,18-tetramethyl-2,11,12,16-tetrahydro-8H,10H-3,5-ethenotripyrazolo[3,4-h:3′,4′-l:4″,3″- p][1,7,4]dioxazacycloheptadecin-13(14H)-one], the IC50 in assay [1] was 33.5 nM; against EGFR L858R/T790M mutant it was 43.3 nM; at EGFR (D770_N771insNPG), more than 1000 nM; in assay [2], 228 nM; against EGFR L858R mutant, 828 nM; on EGFR WT, 782 nM. Besides, the IC50 on EGFR Δ746-750 mutant stood at 296 nM.
With `CCc1nn(CCN2CC[C@H](O)C2)c2c1/C=C/c1n[nH]c3ccc(cc13)-c1cnn(C)c1OCCCO2` [Example 69, (3S)-1-{2-[(17E)-16-ethyl-8-methyl-2,8,11,12-tetrahydro-10H,14H-3,5-etheno[1,5]dioxacyclopentadecino[10,11-c:15,14-c′:6,7-c″]tripyrazol-14-yl]ethyl}pyrrolidin-3-ol], the 50% inhibitory concentration (IC50) was 25.6 nM in assay [1]; 14.9 nM against EGFR L858R/T790M mutant; 306 nM on EGFR (D770_N771insNPG); 92.4 nM in assay [2]; 121 nM against EGFR L858R mutant; 405 nM on EGFR WT. Also, at EGFR Δ746-750 mutant, half-maximal inhibition (IC50) required 93 nM.
Regarding `Cn1ncc2c1OCCN1CC[C@@H](Oc3ccccc3/C=C/c3n[nH]c4ccc-2cc34)C1=O` [Example 70, (10R,16E)-3-methyl-3,5,6,9,10,19-hexahydro-8H-20,22-etheno-7,10-methanodipyrazolo[3,4-i:4,3′-m][1,8,5]benzodioxazacyclooctadecin-25-one], the IC50 stood at 3.68 nM in assay [1]; 3.81 nM at EGFR L858R/T790M mutant; 73.6 nM on EGFR (D770_N771insNPG); 27.1 nM in assay [2]; 70.1 nM against EGFR L858R mutant; 98.7 nM at EGFR WT. Also, on EGFR Δ746-750 mutant, 32.3 nM corresponded to half-maximal inhibition (IC50).
